Reference: patent publication US9273057B2 (Bristol-Myers Squibb Company, priority 2012, dated 2016)

What follows are compounds tested against CK2A1 (CK2α/β) (Homo sapiens, UniProt P68400) (assay: CK2 kinase assay, CK2A1 (CK2α/β)). Details: Table A; read-out: CK2A1 (CK2α/β) (IC50).
Format: biochemical

Sequence of CK2A1 (CK2α/β) (P68400 whole entry, species assumed): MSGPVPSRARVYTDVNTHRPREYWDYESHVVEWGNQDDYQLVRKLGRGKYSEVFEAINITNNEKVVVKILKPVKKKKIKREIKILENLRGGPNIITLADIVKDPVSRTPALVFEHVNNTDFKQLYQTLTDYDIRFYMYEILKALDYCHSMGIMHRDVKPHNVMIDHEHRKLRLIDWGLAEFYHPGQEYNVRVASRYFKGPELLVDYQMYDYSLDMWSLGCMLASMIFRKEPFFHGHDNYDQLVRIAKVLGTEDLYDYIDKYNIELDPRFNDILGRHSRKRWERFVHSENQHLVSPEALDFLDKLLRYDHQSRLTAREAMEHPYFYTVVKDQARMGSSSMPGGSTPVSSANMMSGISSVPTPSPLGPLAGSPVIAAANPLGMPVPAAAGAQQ
Sequence of CK2A1 (CK2α/β) (P67870 whole entry partner, species assumed): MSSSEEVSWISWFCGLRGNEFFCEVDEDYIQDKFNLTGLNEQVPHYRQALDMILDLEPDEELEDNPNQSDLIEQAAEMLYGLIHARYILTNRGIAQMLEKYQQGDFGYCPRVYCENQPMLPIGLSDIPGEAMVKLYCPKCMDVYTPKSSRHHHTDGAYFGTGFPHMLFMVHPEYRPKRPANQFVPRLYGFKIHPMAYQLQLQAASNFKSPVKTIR

Compound	IC50
N#Cc1cc(Nc2nc(NC3CC3)c3ncc(C#N)n3n2)c(Cl)c(N2CCC3(CC2)COC3)c1 [Example 48, 2-((2-chloro-5-cyano-3-(2-oxa-7-azaspiro[3.5]non-7-yl)phenyl)amino)-4-(cyclopropylamino)imidazo [2,1-f][1,2,4]triazine-7-carbonitrile]	0.71 nM
N#Cc1cc(Nc2nc(NC3CC3)c3ncc(C#N)n3n2)c(Cl)c(OC2CCN(C3COC3)C2)c1 (racemic) [Example 426, (+/−)-2-((2-chloro-5-cyano-3-((1-(oxetan-3-yl)pyrrolidin-3-yl)oxy)phenyl)amino)-4-(cyclopropylamino)imidazo[2,1-f][1,2,4]triazine-7-carbonitrile]	0.38 nM
COC(=O)N[C@@H]1CCN(c2cc(C#N)cc(Nc3nc(NC4CC4)c4ncc(C#N)n4n3)c2Cl)C[C@H]1OC(=O)[C@@H](N)C(C)C (racemic) [Example 192, (+/−)-(R)-(3S,4S)-1-(2-chloro-5-cyano-3-((7-cyano-4-(cyclopropylamino)imidazo[2,1-f][1,2,4]triazin-2-yl)amino)phenyl)-4-((methoxycarbonyl)amino)piperidin-3-yl 2-amino-3-methylbutanoate]	2.12 nM
CCNc1nc(Nc2cc(C#N)cc(C3CNC3)c2Cl)nn2c(C#N)cnc12 [Example 367, 2-((3-(azetidin-3-yl)-2-chloro-5-cyanophenyl)amino)-4-(ethylamino)imidazo[2,1-f][1,2,4]triazine-7-carbonitrile]	1.17 nM
CCNc1nc(Nc2cc(C#N)cc(N3CC[C@@H]4[C@@H](C3)OCCN4C)c2Cl)nn2c(C#N)cnc12 (racemic) [Example 373, (+/−)-2-((2-chloro-5-cyano-3-((4aR,8 aR)-1-methylhexahydro-1H-pyrido[3,4-b][1,4]oxazin-6(7H)-yl)phenyl)amino)-4-(ethylamino)imidazo[2,1-f][1,2,4]triazine-7-carbonitrile]	0.99 nM
N#Cc1cc(Nc2nc(NC3CC3)c3ncc(C#N)n3n2)c(OCCN2CCOCC2)cc1OCCN1CCOCC1 [Example 422, 2-((5-cyano-2,4-bis(2-morpholinoethoxy)phenyl)amino)-4-(cyclopropylamino)imidazo[2,1-f][1,2,4]triazine-7-carbonitrile]	2.73 nM
CN1CCC2(CC1)CCN(c1cc(C#N)cc(Nc3nc(NC4CC4)c4ncc(C#N)n4n3)c1Cl)C2 (racemic) [Example 26, (+/−) 2-((2-chloro-5-cyano-3-(8-methyl-2,8-diazaspiro[4.5]dec-2-yl)phenyl)amino)-4-(cyclopropylamino)imidazo [2,1-f][1,2,4]triazine-7-carbonitrile]	1.03 nM
CC1(N2CCN(c3cc(C#N)cc(Nc4nc(NC5CC5)c5ncc(C#N)n5n4)c3Cl)CC2)COC1 [Example 311, 2-((2-chloro-5-cyano-3-(4-(3-methyl-3-oxetanyl)-1-piperazinyl)phenyl)amino)-4-(cyclopropylamino)imidazo[2,1-f][1,2,4]triazine-7-carbonitrile]	0.96 nM
N#Cc1cnc2c(NC3CC3)nc(Nc3cc(C(F)F)cc(N4CCC(NC5COC5)CC4)c3Cl)nn12 [Example 256, 2-((2-chloro-5-(difluoromethyl)-3-(4-(3-oxetanylamino)-1-piperidinyl)phenyl)amino)-4-(cyclopropylamino)imidazo[2,1-f][1,2,4]triazine-7-carbonitrile]	0.75 nM
N#Cc1cc(Nc2nc(NC3CC3)c3ncc(C#N)n3n2)c(Cl)cc1NC1CCNCC1 [Example 410, 2-((2-chloro-5-cyano-4-(piperidin-4-ylamino)phenyl)amino)-4-(cyclopropylamino)imidazo[2,1-f][1,2,4]triazine-7-carbonitrile]	0.68 nM
N#Cc1cc(Nc2nc(NC3CC3)c3ncc(C#N)n3n2)c(Cl)c(N2CCC(N[C@H]3CC[C@H](O)C3)CC2)c1 (racemic) [Example 120, (+/−) 2-((2-chloro-5-cyano-3-(4-(((1S,3S)-3-hydroxycyclopentyl)amino)-1-piperidinyl)phenyl)amino)-4-(cyclopropylamino)imidazo [2,1-f][1,2,4]triazine-7-carbonitrile]	0.69 nM

Next, values leading:

IC50	Compound
0.47 nM	CC(O)c1cc(C#N)cc(Nc2nc(NC3CC3)c3ncc(C#N)n3n2)c1Cl (racemic) [Example 677, (+/−)-2-((2-chloro-5-cyano-3-(1-hydroxyethyl)phenyl)amino)-4-(cyclopropylamino)imidazo[2,1-f][1,2,4]triazine-7-carbonitrile]
0.38 nM	N#Cc1cc(Nc2nc(NC3CC3)c3ncc(C#N)n3n2)c(Cl)c(C(F)(F)CO)c1 [Example 737, 2-((2-chloro-5-cyano-3-(1,1-difluoro-2-hydroxyethyl)phenyl)amino)-4-(cyclopropylamino)imidazo[2,1-f][1,2,4]triazine-7-carbonitrile]
2.9 nM	CN1CCN(c2cc(Cl)c(Nc3nc(NC4CC4)c4ncc(C#N)n4n3)cc2C#N)CC1 [Example 432, 2-((2-chloro-5-cyano-4-(4-methyl-1-piperazinyl)phenyl)amino)-4-(cyclopropylamino)imidazo[2,1-f][1,2,4]triazine-7-carbonitrile]
1.12 nM	COC(=O)N[C@H]1CCN(c2cc(C#N)cc(Nc3nc(NC4CC4)c4ncc(C#N)n4n3)c2Cl)C[C@@H]1NC1COC1 (single isomer, unassigned) [Example 744]
2.46 nM	COC(=O)N[C@H]1CCN(c2cc(C#N)cc(Nc3nc(NC4CC4)c4ncc(C#N)n4n3)c2Cl)CC1N[C@@H](C)C(N)=O (stereo partly drawn) [Example 753, methyl N-[(4S)-3-{[(1S)-1-carbamoylethyl]amino}-1-(2-chloro-5-cyano-3-{[7-cyano-4-(cyclopropylamino)imidazo [2,1-f][1,2,4]triazin-2-yl]amino}phenyl)piperidin-4-yl]carbamate]
6.24 nM	C=C(C)/C=C/CN1CCN(c2cc(C#N)cc(Nc3nc(NC4CC4)c4ncc(C#N)n4n3)c2Cl)CC1 [Example 530, (E)-2-((2-chloro-5-cyano-3-(4-(4-methylpenta-2,4-dien-1-yl)piperazin-1-yl)phenyl)amino)-4-(cyclopropylamino)imidazo[2,1-f][1,2,4]triazine-7-carbonitrile]
0.3 nM	CC(C)(C)NCc1cc(C#N)cc(Nc2nc(NC3CC3)c3ncc(C#N)n3n2)c1Cl [Example 468, 2-({3-[(tert-butylamino)methyl]-2-chloro-5-cyanophenyl}amino)-4-(cyclopropylamino)imidazo[2,1-f][1,2,4]triazine-7-carbonitrile]
0.64 nM	N#Cc1cc(Nc2nc(NC3CC3)c3ncc(C#N)n3n2)c(Cl)c(N2C[C@@H]3CCCN[C@@H]3C2)c1 (racemic) [Example 777, (+/−)-2-((2-chloro-5-cyano-3-((4aS,7aS)-hexahydro-1H-pyrrolo[3,4-b]pyridin-6(2H)-yl)phenyl)amino)-4-(cyclopropylamino)imidazo[2,1-f][1,2,4]triazine-7-carbonitrile]
0.66 nM	N#Cc1cc(Nc2nc(NC3CC3)c3ncc(C#N)n3n2)c(Cl)cc1CCCCN1CCOCC1 [Example 572, 2-((2-chloro-5-cyano-4-(4-morpholinobutyl)phenyl)amino)-4-(cyclopropylamino)imidazo[2,1-f][1,2,4]triazine-7-carbonitrile]
0.67 nM	N#Cc1cc(CN2CCC3(CC2)COC3)c(Cl)c(Nc2nc(NC3CC3)c3ncc(C#N)n3n2)c1 [Example 665, 2-((3-(2-oxa-7-azaspiro[3.5]nonan-7-ylmethyl)-2-chloro-5-cyanophenyl)amino)-4-(cyclopropylamino)imidazo[2,1-f][1,2,4]triazine-7-carbonitrile]
